The values that follow come from publication PMC3022030 (PLoS ONE, 2011).

Holding throughout (assay): biochemical
For assay [1], the target named is T1, QacR (Staphylococcus aureus, UniProt P0A0N3, E120A).
In assay [2] the target is T2, QacR (Staphylococcus aureus, UniProt P0A0N3, E90A).
Assay [3] addresses T2, QacR. This is another data set of the same source.
The target in assay [4] is T1, QacR. This is another data set of the same source.

Where two headings read alike, the source gives them in different places.

As a reminder, the Kd is a measure of binding affinity in units of concentration. Low values mean higher affinity, high ones lower affinity.

Regarding `CN(C)c1ccc(C(=C2C=CC(=[N+](C)C)C=C2)c2ccccc2)cc1` [malachite green], the figures for the dissociation constant Kd on QacR [1] and on QacR [2] were 0.98 ± 0.32 µM and 1.49 ± 0.1 µM, respectively.
Turning to `CC[n+]1c(-c2ccccc2)c2cc(N)ccc2c2ccc(N)cc21` [ethidium], the dissociation constant Kd was determined as 1.25 ± 0.15 µM on QacR [1] and 1.03 ± 0.09 µM at QacR [2].
`CCN=c1cc2oc3cc(NCC)c(C)cc3c(-c3ccccc3C(=O)OCC)c-2cc1C` [rhodamine 6G]: the figures for the dissociation constant Kd at QacR [1] and at QacR [2] were 0.17 ± 0.01 µM and 0.21 ± 0.02 µM, respectively.
For `Cc1cc(N)c2ccccc2[n+]1CCCCCCCCCC[n+]1c(C)cc(N)c2ccccc21` [dequalinium], the results for the Kd at QacR [3] and on QacR [4] were 1.8 ± 0.07 µM and 2.4 ± 0.6 µM, respectively.
